Results on 18 compounds are retold here after patent US10377770B2 (Novartis AG, priority 2015, dated 2019).

This assay concerns the target C-Raf FL (full length CRAF with Y340E and Y341E activating mutations, co-expressed with h14-3-3 zeta) (Homo sapiens (Human), UniProt P04049, Y340E/Y341E). Kind of assay: In vitro Raf activity determination, AlphaScreen p-MEK readout, c-Raf (C-Raf FL). The class given is biochemical. The conditions noted are these: c-Raf approximately 4 nM, ATP 1 μM, pre-incubation 60 minutes, reaction 1 hour. The gist of the method: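 Full-length C-Raf (~4 nM) pre-incubated 60 min at room temperature with compound and kinase-dead biotinylated MEK1 (~10 nM) in Tris pH 7.5, 15 mM MgCl2, BSA, DTT. Reaction started with 1 μM ATP and run 1 h at room temperature. Phospho-MEK detected by AlphaScreen with anti-p-MEK antibody.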

Sequence of C-Raf FL (full length CRAF with Y340E and Y341E activating mutations, co-expressed with h14-3-3 zeta) (P04049 whole entry Y340E/Y341E): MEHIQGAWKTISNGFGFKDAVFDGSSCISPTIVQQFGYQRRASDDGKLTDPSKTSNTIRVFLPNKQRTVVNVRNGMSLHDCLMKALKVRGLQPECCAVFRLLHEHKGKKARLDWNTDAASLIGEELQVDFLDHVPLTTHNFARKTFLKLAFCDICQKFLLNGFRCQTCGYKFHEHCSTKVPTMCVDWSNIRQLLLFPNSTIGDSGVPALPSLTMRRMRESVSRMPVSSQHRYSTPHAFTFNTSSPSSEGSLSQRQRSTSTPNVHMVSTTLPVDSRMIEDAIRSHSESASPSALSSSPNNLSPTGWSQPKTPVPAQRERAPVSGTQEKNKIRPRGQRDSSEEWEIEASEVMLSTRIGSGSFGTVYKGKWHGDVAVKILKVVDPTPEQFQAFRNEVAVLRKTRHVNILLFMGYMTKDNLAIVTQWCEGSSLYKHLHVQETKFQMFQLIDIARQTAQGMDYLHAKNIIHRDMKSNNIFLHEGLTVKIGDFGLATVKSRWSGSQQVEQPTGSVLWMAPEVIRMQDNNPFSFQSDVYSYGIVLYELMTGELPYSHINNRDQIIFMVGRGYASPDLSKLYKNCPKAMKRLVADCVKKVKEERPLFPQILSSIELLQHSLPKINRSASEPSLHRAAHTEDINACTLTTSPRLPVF
Sequence of C-Raf FL (full length CRAF with Y340E and Y341E activating mutations, co-expressed with h14-3-3 zeta) (P63104 whole entry partner): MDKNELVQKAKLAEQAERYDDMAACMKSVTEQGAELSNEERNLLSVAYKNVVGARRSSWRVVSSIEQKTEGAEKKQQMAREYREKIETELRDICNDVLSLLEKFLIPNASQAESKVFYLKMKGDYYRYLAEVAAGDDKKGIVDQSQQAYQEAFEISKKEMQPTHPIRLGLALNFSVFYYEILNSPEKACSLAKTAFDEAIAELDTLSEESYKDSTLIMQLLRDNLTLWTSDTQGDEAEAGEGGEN

On to `Cc1ncc(NC(=O)c2ccnc(C(C)(C)F)c2)cc1-c1ccc2c(c1)N1CCOCC[C@H]1C[C@@H]2O` [Example 445, 2-(2-fluoropropan-2-yl)-N-(5-((5aS,7S)-7-hydroxy-1,2,5,5a,6,7-hexahydro-4H-[1,4]oxazepino [4,5-a]quinolin-10-yl)-6-methylpyridin-3-yl)isonicotinamide], for which the IC50 was determined as 0.7 nM.
Then `Cc1ncc(NC(=O)c2ccnc(C(C)(F)F)c2)cc1-c1ccc2c(c1)N1CCOC[C@H]1[C@@](C)(C#N)C2` [Example 375, N-(5-((4aR,5S)-5-cyano-5-methyl-1,2,4,4a,5,6-hexahydro-[1,4]oxazino[4,3-a]quinolin-9-yl)-6-methylpyridin-3-yl)-2-(1,1-difluoroethyl)isonicotinamide], with 0.4 nM; and `Cc1ccc(NC(=O)c2ccnc(C(C)(F)F)c2)cc1-c1cc(F)c2c(c1)N1CCOC[C@H]1[C@@](F)(CO)C2` [Example 430, N-(3-((4aS,5R)-5,7-difluoro-5-(hydroxymethyl)-1,2,4,4a,5,6-hexahydro-[1,4]oxazino[4,3-a]quinolin-9-yl)-4-methylphenyl)-2-(1,1-difluoroethyl)isonicotinamide], with 0.6 nM.
As to `CCN1C(=O)C2COCCC2(C)c2cc(-c3cc(NC(=O)c4ccnc(C(F)(F)F)c4F)ccc3C)cnc21` (stereo not drawn) [Example 347, N-(3-((4a,10b- trans)-6-ethyl-10b-methyl-5-oxo-2,4,4a.5,6,10b-hexahydro-1H-pyrano[3,4-c][1,8]naphthyridin-9-yl)-4-methylphenyl)-3-fluoro-2-(trifluoromethyl) isonicotinamide], the IC50 is 0.3 nM.
Take `CCN1C(=O)[C@@H]2COCC[C@@]2(C)c2cc(-c3cc(NC(=O)c4ccnc(C(C)(F)F)c4)ccc3C)cnc21` (stereo in doubt) [Example 343, 2-(1,1-difluoroethyl)-N-(3-((4a,10b-trans)6-ethyl-10b-methyl-5-oxo-2,4,4a,5,6,10b-hexahydro-1H-pyrano[3,4-c][1,8]naphthyridin-9-yl)-4-methylphenyl)isonicotinamide]: the half-inhibitory concentration (IC50) is 0.2 nM. This IC50 and that of the compound before are within 1.5-fold of each other.
The compound `Cc1ccc(NC(=O)c2ccnc(C(C)(F)F)c2)cc1-c1cnc2c(c1)N1CCOC[C@@H]1[C@@](C#N)(CF)C2` [Example 517, N-(3-((4aS,5S)-5-cyano-5-(fluoromethyl)-1,2,4,4a,5,6-hexahydro-[1,4]oxazino[4,3-a][1,5]naphthyridin-9-yl)-4-methyphenyl)-2-(1,1-difluoroethyl)iso-nicotinamide] displayed an IC50 of 0.1 nM.
In turn, `Cc1ccc(NC(=O)c2ccnc(C(F)(F)F)c2F)cc1-c1cnc2c(c1)N1CCOC[C@H]1CC(=O)N2CCO` [Example 322, (R)-3-fluoro-N-(3-(7-(2-hydroxyethyl)-6-oxo-2,4,4a,5,6,7-hexahydro-1H-[1,4]oxazino[4,3-d]pyrido[2,3-b][1,4]diazepin-10-yl)-4-methylphenyl)-2-(trifluoromethyl) isonicotinamide] showed an IC50 of 0.3 nM.
In the case of `Cc1ncc(NC(=O)c2ccnc(C(C)(F)F)c2)cc1-c1ccc2c(c1)N1CCOCC[C@@H]1C[C@@H]2O` [Example 97, 2-(1,1-difluoroethyl)-N-(5-((5aR,7S)-7-hydroxy-1,2,5,5a,6,7-hexahydro-4H-[1,4]oxazepino[4,5-a]quinolin-10-yl)-6-methylpyridin-3-yl)isonicotinamide] it was 0.014 nM; in that of `CCN1c2ncc(-c3cc(NC(=O)c4ccnc(C(F)(F)F)c4)ccc3C)cc2[C@@H]2CCOC[C@H]2C12CC2` [Example 361, N-(3-((4a′R,10b′R)-6′-ethyl-1′,2′,4′,4a′,6′,10b′-hexahydrospiro[cyclopropane-1,5′-pyrano[3,4-c][1,8]naphthyridin]-9′-yl)-4-methylphenyl)-2-(trifluoromethyl)isonicotinamide], 0.9 nM.
Then `Cc1ccc(NC(=O)c2ccnc(C(F)(F)F)c2)cc1-c1cnc2c(c1)N1CCOC[C@@H]1C(F)(F)[C@@H]2O` [Example 168, N-(3-((4aR,6R)-5,5-difluoro-6-hydroxy-1,2,4,4a,5,6-hexahydro-[1,4]oxazino[4,3-a][1,5]naphthyridin-9-yl)-4-methylphenyl)-2-(trifluoromethyl)isonicotinamide], with 0.77 nM; and `Cc1ccc(NC(=O)c2ccnc(C(F)(F)F)c2)cc1-c1ccc2c(c1)N1CCOCC1CC2(C)O` (racemic) [Example 22, (rac)-N-(3-(6-hydroxy-6-methyl-1,2,4,4a,5,6-hexahydro-[1,4]oxazino[4,3-a]quinolin-9-yl)-4-methylphenyl)-2-(trifluoromethyl)isonicotinamide], with 0.23 nM; and `Cc1ccc(NC(=O)c2ccnc(C(C)(F)F)c2)cc1-c1cc2c(nn1)OC(C)(C)[C@H]1COCCN21` [Example 138, (R)-2-(1,1-Difluoroethyl)-N-(3-(6,6-dimethyl-6a,7,9,10-tetrahydro-6H-[1,4]oxazino[4,3-d]pyridazino[3,4-b][1,4]oxazin-2-yl)-4-methylphenyl)isonicotinamide], with 0.59 nM.
In turn, `Cc1ncc(NC(=O)c2ccnc(C(C)(F)F)c2)cc1-c1cnc2c(c1)N1CCOC[C@H]1C[C@@H]2O` (racemic) [Example 148, rac-cis-2-(1,1-difluoroethyl)-N-(5-(6-hydroxy-1,2,4,4a,5,6-hexahydro-[1,4]oxazino[4,3-a][1,5]naphthyridin-9-yl)-6-methylpyridin-3-yl)isonicotinamide] registered an IC50 of 0.046 nM.
For `Cc1ccc(NC(=O)c2cncc(C(F)(F)F)c2)cc1-c1ccc2c(c1)N1CCOC[C@H]1[C@](F)(CF)C2` [Example 469, N-(3-((4aS,5S)-5-fluoro-5-(fluoromethyl)-1,2,4,4a,5,6-hexahydro-[1,4]oxazino[4,3-a]quinolin-9-yl)-4-methylphenyl)-5-(trifluorometh-yl)nicotinamide], inhibition was half-maximal at 1.8 nM (IC50).
In the case of `CCN1C(=O)C2COCCN2c2cc(-c3cc(NC(=O)c4ccnc(C(F)(F)F)c4)ccc3C)nnc21` (racemic) [Example 132, rac-N-(3-(5-Ethyl-6-oxo-5,6,6a,7,9,10-hexahydropyridazino[3′,4′:5,6]pyrazino[2,1-c][1,4]oxazin-2-yl)-4-methylphenyl)-2-(trifluoromethyl)isonicotinamide] it was 0.14 nM.
In the case of `Cc1ccc(NC(=O)c2ccnc(C(F)(F)F)c2)cc1-c1cnc2c(c1)N1CCOC[C@H]1[C@H](C(C)(C)O)C2` [Example 457] it was 0.4 nM.
Regarding `Cc1ccc(NC(=O)c2ccnc(C(F)(F)F)c2F)cc1-c1ccc2c(c1)N1CCOC[C@H]1[C@](F)(CO)C2` [Example 385, 3-fluoro-N-(3-((4aS,5S)-5-fluoro-5-(hydroxymethyl)-1,2,4,4a,5,6-hexahydro-[1,4]oxazino[4,3-a]quinolin-9-yl)-4-methylphenyl)-2-(trifluoromethyl)isonicotinamide], the half-inhibitory concentration (IC50) was found to be 0.6 nM.
Then `Cc1ncc(NC(=O)c2ccnc(C(C)(F)F)c2)cc1-c1ccc2c(c1)N1CCOCC1CC2O` (racemic) [Example 11, (rac)-2-(1,1-difluoroethyl)-N-(5-(6-hydroxy-1,2,4,4a,5,6-hexahydro-[1,4]oxazino[4,3-a]quinolin-9-yl)-6-methylpyridin-3-yl)isonicotinamide], with 0.0098 nM.
